Reference: ChEMBL document CHEMBL1149403, “Design, synthesis, and anti-Helicobacter pylori activity of erythromycin A (E)-9-oxime ether derivatives” (2006)
≈ marks a conversion by molar mass, not a printed value.

test system: Helicobacter pylori; test: Inhibitory activity against Helicobacter pylori NCTC-10638; assay type: functional

Row | MIC | SMILES
1 | 0.02 µg/mL (≈ 0.0271 µM) | CC[C@H]1OC(=O)[C@H](C)C(=O)[C@H](C)C(O[C@@H]2O[C@H](C)C[C@H](N(C)C)[C@@H]2O)[C@](C)(OC)C[C@@H](C)/C(=N\OCOc2ccc(OC)cc2)[C@H](C)[C@@H](O)[C@]1(C)O (some centres not stated)
2 | 0.02 µg/mL (≈ 0.0267 µM) | CC[C@H]1OC(=O)[C@H](C)[C@@H](O[C@H]2C[C@@](C)(OC)[C@@H](O)[C@H](C)O2)[C@H](C)[C@@H](O[C@@H]2O[C@H](C)C[C@H](N(C)C)[C@H]2O)[C@](C)(OC)C[C@@H](C)C(=O)[C@H](C)[C@@H](O)[C@]1(C)O [CLARITHROMYCIN]
3 | 0.03 µg/mL (≈ 0.0339 µM) | CC[C@H]1OC(=O)[C@H](C)C(O[C@H]2C[C@](C)(OC)[C@@H](O)[C@@H](C)O2)[C@H](C)C(O[C@@H]2O[C@H](C)C[C@H](N(C)C)[C@@H]2O)[C@](C)(O)C[C@@H](C)/C(=N\OCOc2ccccc2OC)[C@H](C)[C@@H](O)[C@]1(C)O (some centres not stated)

Second part, the molecule before the results:

Row | SMILES | MIC
4 | CC[C@H]1OC(=O)[C@H](C)C(O[C@H]2C[C@](C)(OC)[C@@H](O)[C@@H](C)O2)[C@H](C)C(O[C@@H]2O[C@H](C)C[C@H](N(C)C)[C@@H]2O)[C@](C)(OC)C[C@@H](C)/C(=N\OCOc2ccccc2OC)[C@H](C)[C@@H](O)[C@]1(C)O (some centres not stated) | 0.02 µg/mL (≈ 0.0222 µM)
5 | CC[C@H]1OC(=O)[C@H](C)C(O[C@H]2C[C@](C)(OC)[C@@H](O)[C@@H](C)O2)[C@H](C)C(O[C@@H]2O[C@H](C)C[C@H](N(C)C)[C@@H]2O)[C@](C)(OC)C[C@@H](C)/C(=N\OCOc2ccc(OC)cc2)[C@H](C)[C@@H](O)[C@]1(C)O (some centres not stated) | 0.03 µg/mL (≈ 0.0334 µM)
6 | CC[C@H]1OC(=O)[C@H](C)C(O[C@H]2C[C@](C)(OC)[C@@H](O)[C@@H](C)O2)[C@H](C)C(O[C@@H]2O[C@H](C)C[C@H](N(C)C)[C@@H]2O)[C@](C)(O)C[C@@H](C)/C(=N\OCOc2ccc(OC)cc2)[C@H](C)[C@@H](O)[C@]1(C)O (some centres not stated) | 0.02 µg/mL (≈ 0.0226 µM)
7 | CC[C@H]1OC(=O)[C@H](C)C(=O)[C@H](C)C(O[C@@H]2O[C@H](C)C[C@H](N(C)C)[C@@H]2O)[C@](C)(OC)C[C@@H](C)/C(=N\OCOc2ccccc2OC)[C@H](C)[C@@H](O)[C@]1(C)O (some centres not stated) | 0.04 µg/mL (≈ 0.0541 µM)
